Reference: patent publication US20130224110A1, “USE OF ADENOSINE RECEPTOR SIGNALING TO MODULATE PERMEABILITY OF BLOOD-BRAIN BARRIER” (CORNELL UNIVERSITY, priority 2010, published 2013)

Experiments:
blood brain barrier [1] = assay: Fluorescently labeled dextran extravasation into mouse brain (fluorimetry); format: in vivo, mice
Method: The adenosine receptor agonists NECA, CCPA, CGS 21860, and SCH 58261 (Tocris, Ellisville, Mo.) were each dissolved in DMSO then diluted in PBS to the desired concentration; in most cases final DMSO concentrations were <0.5% (vol/vol). Lexiscan (Regadenoson; TRC, Inc., Toronto) was dissolved in PBS. For vehicle controls, DMSO was diluted in PBS to the same concentration. Dehydrated dextrans labeled with either FITC or Texas Red (Invitrogen, Carlsbad, Calif.) were re-suspended in PBS to 10 mg/ml. All experiments involving dextran injection used 1.0 mg dextran in PBS. In experiments where drug and dextran were injected concomitantly, 1.0 mg of dextran was mixed with the drug to the desired concentration in a final volume of 200 μl. In dose-response experiments, drugs and dextrans were injected concomitantly. All injections, except injections of SCH 58261, were retro-orbital i.v. with a 27-gauge needle. In the SCH 58261 experiment, SCH 58261 injections, 1 mg/kg, were intraperitoneal and mice were pre-dosed with this concentration daily for 4 days prior to the day of the experiment. An additional injection was administered at the time of the experiment. Vehicle/drug and dextrans were injected on day 5 and tissues were collected 3 h after vehicle/drug administration. In Lexiscan experiments, Lexiscan was administered i.v. with 3 injections, 5 min apart and tissues were collected at 15 min unless otherwise indicated.
In dose-response experiments and experiments with the A1 AR and A2A AR knock-out mice, drugs and dextrans were injected concomitantly. After 3 h, the mice were anesthetized with ketamine/xylazine and subjected to a nose cone containing isoflurane. They were perfused with 25-50 ml ice-cold PBS through the left ventricle of the heart then decapitated. Their brains were removed, weighed and frozen for later analysis.
Ice-cold 50 mMTris-Cl (pH 7.6) was added to frozen brains (100 μl per 100 mg brain) and were to thawed on ice. They were homogenized with a dounce homogenizer and centrifuged at […] in a microfuge for 30 min at room temperature (rt). The supernatants were transferred to new tubes and an equal volume absolute methanol was added. The samples were centrifuged again at […] for 30 min at rt. Supernatant (200 μl) was transferred to a Corning costar 96 well black polystyrene assay plate (clear bottom). Additionally, a series of standards containing 0.001-10 pg/ml dextran in 50% Tris-Cl/50% absolute methanol (vol/vol) was added to each plate. Absolute concentrations of dextrans were derived from these standard curves. Fluorimetric analysis was performed on a BioTek (Winooski, Vt.) Synergy 4. FITC-dextran was detected at 488/519 (excitation/emission) and Texas Red-dextran was detected at 592/618.

blood brain barrier [2] = assay: Evans Blue dye extravasation across the blood brain barrier; format: in vivo, mice; details: single i.v. injection 100 μl 0.01 nM one hour before dye
Method: The objective of this experiment was to determine if the blood brain barrier could be modulated by activation of adenosine receptors. NECA is a non-selective adenosine receptor agonist, with similar affinities for A1, A2A and A3 adenosine receptors and a low affinity for the A2b adenosine receptor. In order to determine if activation of adenosine receptors would induce extravasation of Evans Blue dye across the blood brain barrier (BBB), mice were treated with: NECA, a non-selective adenosine receptor agonist (n=5, 100 μl 0.01 nM); SCH58261, an A2A adenosine receptor specific antagonist (n=5, 1 mg/kg); pertussis toxin, an agent known to induce BBB leakiness and as such used as a positive control (n=7, 200 μl); and, PBS as a vehicle control (n=5, 100 μl). CD73^−/− mice, which lack the ability to produce extracellular adenosine, were also treated with NECA (n=4, 100 μl 0.01 nM). Treatments were administered as a single i.v. injection one hour prior to i.v. injection of 200 μl 1% Evans Blue dye ([…] total dye injected). Four hours after administration of Evans Blue, mice were anesthetized with a ketamine/xylazine mix and perfused via the left ventricle with ice cold PBS. […] Following extraction, the tissue/solvent mixture was centrifuged at 500×g for 30 minutes and 100 μl of supernatant was read on a BioTex spectrophotometer at 620 nm. Data is expressed as μg Evans Blue/ml DMF.

blood brain barrier [3] = assay: Entry of i.v. anti-β-amyloid antibody 6E10 into brain of transgenic AD (APP/PSEN) mice after NECA; format: in vivo; details: NECA i.v. 3 h before 6E10 i.v., brains collected after 90 min
Method: Wild type and transgenic (AD) mice were given 0.80 μg NECA (i.v.). After 3 h, 400 μg of antibody to β-amyloid (200 μl of 2 mg/ml; clone 6E10, Covance, Princeton, N.J.) was administered i.v. and the mice rested for 90 min. Mice were then anesthetized and perfused as described above and their brains were placed in OTC and flash-frozen for later sectioning. Sagital sections (6 μm) were fixed in acetone for 10 min, then washed in PBS. Sections were blocked with casein for 20 min then incubated with 1:50 dilution of goat anti-mouse IgCy5 (polyclonal, 1 mg/ml, Abcam, Cabridge, Mass.) for 20 min then washed 3 times in PBS. Sections were then dried and mounted with VectashieldHardset mounting media with DAPI (Vector Laboratories, Burlingame, Calif.). Images were obtained on a Zeiss Axio Imager M1 fluorescent microscope.
The most challenging therapeutic agents to get across the BBB are macromolecules such as antibodies, due to their enormous size (˜150 kDa). It was asked whether adenosine receptor modulation with NECA can facilitate the entry of antibodies into the CNS. To test this, a double [amyloid precursor protein (APP)/presenilin (PSEN)] transgenic mouse model of AD [strain B6.Cg-Tg(APPswe,PSEN1dE9)85Dbo/J] was used. […]

| Compound | BBB permeability after NECA administration with A2A blockade (blood brain barrier [1]; A1 AR−/− mice pre-treated with the antagonist before NECA) | entry of 10,000 Da FITC-dextran into brain (blood brain barrier [1]; WT mice, 1 mg/kg intraperitoneal daily for 4 days plus day of experiment) | Evans Blue dye migration vs. PBS control (blood brain barrier [2]; CD73−/− mice) | Evans Blue dye migration vs. control (blood brain barrier [2]; WT mice) | levels of i.v.-administered dextrans in brain compared to wild type mice (blood brain barrier [1]; A1−/− and A2A−/− mice, i.v., 3 h) | FITC-dextran extravasation into brain (pilot experiment, data not shown) (blood brain barrier [1]; CD73−/− mice, 10,000 Da FITC-dextran i.v.) | time of maximum entry of labeled dextran into the CNS post-treatment (blood brain barrier [1]; WT mice, 0.08 mg/kg i.v., dextran co-administered at T0) [h] | time by which barrier permeability returns to baseline (blood brain barrier [1]; WT mice, 0.08 mg/kg i.v., dextran given at indicated times after treatment) [h] | effect of higher concentrations on dextran entry (blood brain barrier [1]; WT mice, doses above 0.08 mg/kg) | dose giving maximum entry of dextrans into the CNS (blood brain barrier [1]; WT mice, i.v., 3 h) [mg/kg] | CNS entry of 10,000 Da and 70,000 Da dextrans (blood brain barrier [1]; WT mice, i.v., 3 h, varying dose, vs vehicle) | binding of i.v. injected 6E10 antibody to Aβ plaques in brain (blood brain barrier [3]) |
| --- | --- | --- | --- | --- | --- | --- | --- | --- | --- | --- | --- | --- |
| Nc1nc2c(cnn2CCc2ccccc2)c2nc(-c3ccco3)nn12 [SCH58261, 2-(2-Furanyl)-7-(2-phenylethyl)-7H-pyrazolo[4,3-e][1,2,4]triazolo[1,5-c]pyrimidin-5-amine] | no significant increase in BBB permeability was observed | significantly decreased entry of 10,000 Da FITC-dextran |  |  |  |  |  |  |  |  |  |  |
| CCNC(=O)[C@H]1O[C@@H](n2cnc3c(N)ncnc32)[C@H](O)[C@@H]1O [NECA, 5′-N-ethylcarboxamido adenosine] |  |  | almost five fold increase | increase over control mice | significantly lower levels | dramatic increase in FITC-dextran extravasation | 4 to 6 | 8 to 18 | no additional effect or show diminished efficacy | 0.08 | dose-dependent increases in CNS entry | Binding of 6E10 antibody to Aβ plaques was observed throughout the brains |
